Test results published in patent US20130072448A1, “Drug Combination Comprising A Glycolysis Inhibitor And A Tyrosine Kinase Inhibitor” (URIFER LTD., priority 2011, published 2013).

Legend:
[1] = tested on: HCT116 colon cancer cells; experiment: Dead cells fraction by FACS (PI), HCT116; format: cell-based; settings: compounds alone or in combination
Protocol: (§1) Florescence assisted cell sorting (FACS) was performed as described in Pasder O, et al. [Pasder O, et al. Oncogene 2006; 25(30):4194-206]. Cells were rinsed twice with cold PBS, and then harvested by treatment with trypsin. Suspended cells were washed twice in 10 ml cold PBS and centrifuged at 500 g for 5 min. In cell cycle analyses, the pellet was resuspended in 200 μl cold PBS and cells were stained in the dark with 200 μl propidium iodide (PI) solution (20 mM Tris, pH 8, 1 mM NaCl, 0.1% (v/v) NP-40, 1.4 mg/ml RNase A, 0.05 mg/ml PI) for 30 min at […]. In experiments to determine the fraction of dead cells in a population of cells, the detergent NP-40 was omitted. The total cellular DNA content was determined using a Becton Dickinson flow cytometer (FACSCalibur). The data were analyzed using Cell Quest Pro software (Becton Dickinson) and ModFit LT software.

[2] = tested on: human foreskin cells (FS11); experiment: Dead cells fraction by FACS (PI), normal FS11 cells; format: cell-based; settings: up to 1000 μM DG and 1 μM compound 0260, alone or in combinations
Protocol: as §1
(§2) To study the effect of various combinations of Fer and glycolysis inhibitors on cell cycle progression, various concentrations of 0260 and DG alone and in combination were tested in Hep3B liver cancer cells and on human foreskin cells (FS11) as a non-cancer controls.

[3] = tested on: Hep3B liver cancer cells; experiment: Dead cells fraction by FACS (PI), Hep3B; format: cell-based, human; settings: compounds alone or in combination
Protocol: as §1, §2

[4] = biological target: T1, Fer (Homo sapiens, UniProt P16591); experiment: in-vivo Fer activity assay: auto-phosphorylation of Fer in HCT116 CC cells (IP, anti-phosphotyrosine western blot); format: cell-based; settings: serum deprived 24 h with 2 μM 0260, 20 mM H2O2 15 min before harvest
T1 construct: endogenous in cells; host or cells: HCT116 colon carcinoma cells
T1 sequence (P16591 whole entry): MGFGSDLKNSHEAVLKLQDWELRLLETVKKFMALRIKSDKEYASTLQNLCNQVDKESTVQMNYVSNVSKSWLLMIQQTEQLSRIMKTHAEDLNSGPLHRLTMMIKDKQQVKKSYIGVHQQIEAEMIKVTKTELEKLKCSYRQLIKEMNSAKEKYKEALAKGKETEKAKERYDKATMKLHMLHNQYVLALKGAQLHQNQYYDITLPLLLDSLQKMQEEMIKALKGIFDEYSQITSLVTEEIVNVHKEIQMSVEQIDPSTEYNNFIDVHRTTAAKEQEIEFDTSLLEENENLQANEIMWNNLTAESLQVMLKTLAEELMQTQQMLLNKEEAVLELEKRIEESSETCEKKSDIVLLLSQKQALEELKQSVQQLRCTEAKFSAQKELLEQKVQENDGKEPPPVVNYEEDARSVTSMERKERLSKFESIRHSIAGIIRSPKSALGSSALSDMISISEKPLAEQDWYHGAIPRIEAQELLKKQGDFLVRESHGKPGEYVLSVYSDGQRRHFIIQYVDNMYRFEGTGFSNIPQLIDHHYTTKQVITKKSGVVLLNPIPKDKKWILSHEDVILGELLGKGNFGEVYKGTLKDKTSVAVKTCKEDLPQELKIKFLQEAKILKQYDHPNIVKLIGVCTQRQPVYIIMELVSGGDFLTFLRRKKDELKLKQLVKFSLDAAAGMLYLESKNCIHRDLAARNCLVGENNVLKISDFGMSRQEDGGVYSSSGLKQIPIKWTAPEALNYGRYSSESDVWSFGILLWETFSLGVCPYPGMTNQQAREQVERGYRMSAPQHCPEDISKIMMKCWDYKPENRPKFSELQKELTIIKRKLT
Protocol: HCT116 CC cells were deprived of serum for 24 h in the presence of 2 μM 0260 or 0.5% DMSO (the solvent). 15 min before harvest cells were treated with 20 mM H2O2— for activation and auto-phosphorylation of Fer. Protein lysates were prepared from cells: starved in the presence of DMSO and treated with H2O2 (1), starved in the presence of 0260 and treated with H2O2 (2), and from untreated cells (3). Fer was immuno-precipitated, resolved in SDS-PAGE and reacted with anti-phosphotyrosine (pY— upper panel) or anti-Fer antibodies (lower panel) in a western blot analysis.
After extraction of cellular proteins, a protein sample of 750-1000 μg was diluted 3fold with TGET buffer (20 mM Tris-HCl (Ph7.5), 1 mM EDTA, 0.1% Triton X100 and 10% Glycerol) with […] and protease inhibitors and incubated with the indicated antibody at a dilution of 1:100 overnight at 4° C. with shaking. At the end of the incubation, 25 μl Protein A/G suspension was added bound to agarose beads. The mixture was shaken for another 90 min at 4° C. The immune complex precipitate was obtained after centrifugation for 20 min at maximum speed and then washed three times in extraction buffer: twice with buffer TGET NaCl 150 mM and once with TGET NaCl 75 mM. The precipitate was suspended in 2× loading buffer. […]

| SMILES | dead cells fraction [1] | dead cells fraction [2] | dead cells fraction [3] | inhibition of Fer auto-phosphorylation [4] |
| --- | --- | --- | --- | --- |
| O=CC[C@@H](O)[C@H](O)[C@H](O)CO [DG, 2-deoxyglucose, reference compound] | only minor effect | only minor effects | only minor effect | – |
| CC(C)c1ccc(-c2cn3nc(N4CCC(CN5CCN(C)CC5)CC4)sc3n2)cc1 [compound 0260, 6-(4-isopropyl-phenyl)-2-{4-[(4-methyl-piperazin-1-yl)methyl]piperidin-1-yl}imidazo[2,1-b][1,3,4]thiadiazole] | only minor effect | only minor effects | only minor effect | efficient inhibition |
